Measurements: ChEMBL document CHEMBL1201862, “PubChem BioAssay data set” (2004)
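These data come from cells grown in 96-well plates and exposed to compound for 48 hours at five concentrations. GI50 marks 50% less growth.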 The source made the active and inactive calls. Cut-off read from the data, not from the text of the source: active = GI50 up to about 1.1 µM and inactive = higher. Starred links: 1 amine or outer side, 2 acyl side, 3 side chain; linkers in the order of their positions; H or OH if unused. Positions of bridges follow the written chain, without caps; N, C: chain ends. Non-standard residues stand in square brackets, D forms with d. Residues, ends and D or L forms follow the SMILES beside them. Chains are numbered I, II in the order given. ξ: configuration not given here. X42 = N=C(N)NCCC[C@H](NC(=N)CCCCCCC(=N)N[C@@H](CCCNC(=N)N)C(=O)[*:2])C(=O)[*:1]; Oic(3aξ,7aξ) = O=C(O)[C@@H]1CC2CCCCC2N1; Igl = N[C@H](C(=O)O)C1Cc2ccccc2C1; Hyp = O=C(O)[C@@H]1C[C@@H](O)CN1

Columns and labels:
Test in all cases: inhibition of tumour cell growth, NCI panel, 48 h
[1] = tested on: A549
[2] = tested on: ACHN
[3] = tested on: EKVX
[4] = tested on: HCC 2998
[5] = tested on: M14
[6] = tested on: NCI-H23
[7] = tested on: NCI-H460
[8] = tested on: RPMI-8226
[9] = tested on: RXF 393
[10] = tested on: SF-268
[11] = tested on: SK-MEL-2
[12] = tested on: SNB-19
[13] = tested on: SR
[14] = tested on: TK-10
[15] = tested on: UACC-257
[16] = tested on: UO-31
[17] = tested on: UACC-62
[18] = tested on: DU-145
[19] = tested on: T47D

| Structure (SMILES) | GI50 [1] | GI50 [2] | GI50 [3] | GI50 [4] | GI50 [5] | GI50 [6] | GI50 [7] | GI50 [8] | GI50 [9] | GI50 [10] | GI50 [11] | GI50 [12] | GI50 [13] | GI50 [14] | GI50 [15] | GI50 [16] | GI50 [17] | GI50 [18] | GI50 [19] |
| --- | --- | --- | --- | --- | --- | --- | --- | --- | --- | --- | --- | --- | --- | --- | --- | --- | --- | --- | --- |
| CCc1cccc(C(C)C)c1NC(=O)CC1Sc2ccccc2NC1=O (stereo not given) | 49.2 µM (inactive) | 51.6 µM (inactive) | 80.5 µM (inactive) | > 100 µM (inactive) | 38.6 µM (inactive) | 52.8 µM (inactive) | 71.4 µM (inactive) | 48.5 µM (inactive) | 41 µM (inactive) | > 100 µM (inactive) | 39.5 µM (inactive) | 23.2 µM (inactive) | 30.1 µM (inactive) | > 100 µM (inactive) | 43.8 µM (inactive) | 43.3 µM (inactive) | – | – | – |
| COc1ccc(C2c3cc4c(cc3OC(O)(CO)C2C(=O)O)OCO4)cc1.COc1ccc(C2c3cc4c(cc3OC3(O)COC(=O)C23)OCO4)cc1 (stereo not given) | 36.2 µM (inactive) | – | 31.4 µM (inactive) | 20.2 µM (inactive) | 15.3 µM (inactive) | 23.4 µM (inactive) | 19.1 µM (inactive) | 20.4 µM (inactive) | 16.9 µM (inactive) | 28 µM (inactive) | 25.9 µM (inactive) | – | 19.2 µM (inactive) | 67.6 µM (inactive) | 21.5 µM (inactive) | 29.9 µM (inactive) | 17.7 µM (inactive) | – | – |
| N=C(N)NCCC[C@H](NC(=O)[C@@H]1CC2CCCCC2N1C(=O)[C@@H](NC(=O)[C@H](CO)NC(=O)[C@@H](NC(=O)CNC(=O)[C@@H]1CCCN1C(=O)[C@H](CCCNC(=N)N)NC(=O)[C@H](CCCNC(=N)N)NC(=N)CCCCCCC(=N)N[C@@H](CCCNC(=N)N)C(=O)N[C@@H](CCCNC(=N)N)C(=O)N1CCC[C@H]1C(=O)N1C[C@H](O)C[C@H]1C(=O)NCC(=O)N[C@H](C(=O)N[C@@H](CO)C(=O)N[C@H](C(=O)N1C2CCCCC2C[C@H]1C(=O)N[C@@H](CCCNC(=N)N)C(=O)O)C1Cc2ccccc2C1)C1Cc2ccccc2C1)C1Cc2ccccc2C1)C1Cc2ccccc2C1)C(=O)O (stereo not given in full) (I: RP[Hyp]G[Igl]S[Igl][Oic(3aξ,7aξ)]R-OH / II: RPG[Igl]S[Igl][Oic(3aξ,7aξ)]R-OH; linker I:N-II:N via X42) | 3.08 µM (inactive) | 1.91 µM (inactive) | 2.03 µM (inactive) | – | 3.18 µM (inactive) | 1.92 µM (inactive) | 1.91 µM (inactive) | 2.31 µM (inactive) | 1.34 µM (inactive) | 1.92 µM (inactive) | 2.33 µM (inactive) | 2.36 µM (inactive) | 0.169 µM (active) | 2.76 µM (inactive) | 4.15 µM (inactive) | 5.43 µM (inactive) | 1.83 µM (inactive) | 1.64 µM (inactive) | 2.19 µM (inactive) |
| CCOC(=O)c1csc(NC(=O)CN2CCOCC2)n1 | > 100 µM (inactive) | > 100 µM (inactive) | > 100 µM (inactive) | > 100 µM (inactive) | > 100 µM (inactive) | > 100 µM (inactive) | > 100 µM (inactive) | > 100 µM (inactive) | > 100 µM (inactive) | > 100 µM (inactive) | > 100 µM (inactive) | > 100 µM (inactive) | > 100 µM (inactive) | > 100 µM (inactive) | > 100 µM (inactive) | > 100 µM (inactive) | > 100 µM (inactive) | > 100 µM (inactive) | > 100 µM (inactive) |
| CCc1cccc(C(C)C)c1NC(=O)C(=O)C(CC(=O)Nc1ccc(Cl)c(Cl)c1)C(=O)OC (stereo not given) | > 100 µM (inactive) | 78 µM (inactive) | > 100 µM (inactive) | > 100 µM (inactive) | 54.3 µM (inactive) | > 100 µM (inactive) | 85.7 µM (inactive) | 44 µM (inactive) | > 100 µM (inactive) | > 100 µM (inactive) | > 100 µM (inactive) | > 100 µM (inactive) | > 100 µM (inactive) | > 100 µM (inactive) | > 100 µM (inactive) | 37.8 µM (inactive) | 2.18 µM (inactive) | – | – |
| CC(O)C(NC(=O)C(CS)NC(=O)C(CO)NC(=O)C(CCCCN)NC(=O)C(Cc1c[nH]c2ccccc12)NC(=O)C(Cc1ccc(O)cc1)NC(=O)C(CS)NC(=O)C(N)Cc1ccccc1)C(N)=O (stereo not given) | > 25 µM (inactive) | > 25 µM (inactive) | > 25 µM (inactive) | > 25 µM (inactive) | > 25 µM (inactive) | > 25 µM (inactive) | 22.2 µM (inactive) | > 25 µM (inactive) | > 25 µM (inactive) | > 25 µM (inactive) | > 25 µM (inactive) | 26.2 µM (inactive) | > 25 µM (inactive) | – | > 25 µM (inactive) | > 25 µM (inactive) | > 25 µM (inactive) | > 25 µM (inactive) | > 25 µM (inactive) |
| COc1cc(-c2cc(=O)c3c(O)c(OC)c(OC)c(OC)c3o2)ccc1O | 27.3 µM (inactive) | 21.4 µM (inactive) | > 100 µM (inactive) | 34.6 µM (inactive) | 23.3 µM (inactive) | 27.7 µM (inactive) | 16.2 µM (inactive) | 19 µM (inactive) | 13 µM (inactive) | 26.5 µM (inactive) | 17.7 µM (inactive) | 34 µM (inactive) | 23 µM (inactive) | 28.2 µM (inactive) | 20.7 µM (inactive) | 28.8 µM (inactive) | 14.8 µM (inactive) | – | – |
